This is an account of results in patent publication US20260240832A1, “USE OF NITROXOLINE COMPOUND IN ENHANCING EFFECT OF ANTIBACTERIAL AGENT” (Jiangsu Yahong Meditech Co., Ltd., priority 2022, published 2026).

The subject of assay [1] is drug-resistant Escherichia coli I (a strain resistant to carbapenem antibiotics). Nature of the assay: Chessboard microbroth dilution MIC/FIC, compound A in combination with meropenem. In kind it is cell-based. The following applies: for MIC: Escherichia coli, read-out: Meropenem MIC alone; for Meropenem MIC in combination: with compound A. From the text:
(§1) This experiment is designed to determine the minimum inhibitory concentration (MIC) of compound A in combination with meropenem against drug-resistant Escherichia coli I (a strain resistant to carbapenem antibiotics) and drug-resistant Escherichia coli II (a strain resistant to fluoroquinolone antibiotics, non-fluoroquinolone antibiotics, aminoglycoside antibiotics, glycopeptide antibiotics and carbapenem antibiotics), and to calculate the fractional inhibitory concentration (FIC) index.
3 strains of drug-resistant Escherichia coli I, namely drug-resistant Escherichia coli 18-W09-093, drug-resistant Escherichia coli 18-W37-025, and drug-resistant Escherichia coli 18-W37-032, are provided by Shanghai Junji Medical Laboratory Co., Ltd. These 3 strains are all resistant to carbapenem antibiotics (e.g., meropenem).
(§2) According to the recommendation of the Clinical and Laboratory Standards Institute (CLSI), the microbroth dilution method designed by the chessboard method was used to determine the minimum inhibitory concentration (MIC) of compound A in combination with meropenem against the above strains, and the fractional inhibitory concentration (FIC) index was calculated.
(§3) Compound A was dissolved in dimethyl sulfoxide to obtain a stock solution I with a concentration of 1280 mg/L. The stock solution I was diluted to 512 mg/L with sterile water to obtain a gradient dilution first tube solution I. The gradient dilution first tube solution I was subjected to 1:1 gradient dilution with sterile water to obtain a working solution I with a gradient range of 512 to 0.25 mg/L.
(§4) Meropenem was dissolved in sterile water to obtain a stock solution II with a concentration of 5120 mg/L. The stock solution II was diluted to 1024 mg/L with sterile water to obtain a gradient dilution first tube solution II. The gradient dilution first tube solution II was subjected to 1:1 gradient dilution with sterile water to obtain a working solution II with a gradient range of 1024 to 0.5 mg/L.
(§5) According to the method in Example 1, a drug sensitive plate was prepared with working solution I and working solution II, and the specific process will not be repeated here.
(§6) (2) The culture medium of the bacterial solution: Cation-Adjusted Mueller-Hinton Broth (CAMHB), a product of BBL, USA, batch number 9015952.
(§7) (3) Formulation method of bacterial solution: According to the direct colony suspension method, the test bacteria cultured overnight were prepared into a 0.5 McFarland turbidity tube using physiological saline. Then, the resulting solution was dilute 100 times with the above culture medium. 100 μL of the resulting bacterial solution was mixed well with the solution (100 μL) in each well of the drug sensitivity plate, and the final inoculation amount was 10^5 CFU/mL.
(§8) (4) Culture conditions: Culturing at 35±2° C. for 20 hours in air.
(§9) (1) The experimental results were determined according to the standard of CLSI 2019 M100 29th edition.
(§10) wherein: FIC≤0.5 indicates synergistic effect; 0.5<FIC≤1.0 indicates additive effect; 1<FIC≤2.0 indicates irrelevant effect; and FIC>2 indicates antagonistic effect.
In general terms: Dilution methods test growth across graded concentrations, often in twofold steps.

For assay [2], the system named is drug-resistant Escherichia coli II (drug-resistant Escherichia coli 1864). The assay is described as above. In kind it is cell-based. The following applies: strain 1864.
From the text: as §1
1 strain of drug-resistant Escherichia coli II, namely drug-resistant Escherichia coli 1864, is provided by the School of Pharmacy of Fudan University. This strain is resistant to fluoroquinolone antibiotics (such as levofloxacin), non-fluoroquinolone antibiotics (such as nalidixic acid, nemofloxacin), aminoglycoside antibiotics (such as gentamicin), glycopeptide antibiotics (such as vancomycin) and carbapenem antibiotics (such as meropenem).
as §2, §3, §4, §5, §6, §7, §8, §9, §10

The term MIC denotes the smallest concentration in the dilution series that meets the test's criterion for growth inhibition.

Like-named read-outs stand apart in the source and are kept apart here.

Take `C[C@@H](O)[C@H]1C(=O)N2C(C(=O)O)=C(S[C@@H]3CN[C@H](C(=O)N(C)C)C3)[C@H](C)[C@H]12` [Meropenem, reference compound]: the MIC in assay [1] (strain 18-W09-093) was 256 µg/mL; in assay [1] (strain 18-W37-025), 128 µg/mL; in assay [1] (strain 18-W37-032), 128 µg/mL; in assay [2] (Escherichia coli, read-out: Meropenem MIC alone) it was 128 µg/mL. Moreover, the “Meropenem MIC in combination” value in assay [1] (strain 18-W09-093) was determined as 2 µg/mL; in assay [1] (strain 18-W37-025), 1 µg/mL; in assay [1] (strain 18-W37-032), 4 µg/mL; in assay [2] (with compound A), 2 µg/mL.
